Test results reported in ChEMBL document CHEMBL4251568, “A routinely used protein staining dye acts as an inhibitor of wild type and mutant alpha-synuclein aggregation and modulator of neurotoxicity” (Eur J Med Chem, 2018).

What was measured:
[1] = Cytotoxicity against human SH-SY5Y cells assessed as cell viability after 24 hrs by MTT assay; format: cell-based; conditions: read-out: Activity
SH-SY5Y = assay: Cytotoxicity against human SH-SY5Y cells assessed as cell viability after 24 hrs by LDH release assay; format: cell-based

SMILES | viability at 24 h [1] [%] | Activity (SH-SY5Y)
CCOc1ccc(Nc2ccc(C(=C3C=CC(=[N+](CC)Cc4cccc(S(=O)(=O)[O-])c4)C=C3)c3ccc(N(CC)Cc4cccc(S(=O)(=O)[O-])c4)cc3)cc2)cc1.[Na+] | 99 | Non-Toxic
CCOc1ccc(Nc2ccc(/C(=C3C=C/C(=[N+](/CC)Cc4cccc(S(=O)(=O)[O-])c4)C=C/3C)c3ccc(N(CC)Cc4cccc(S(=O)(=O)[O-])c4)cc3C)cc2)cc1.[Na+] [BRILLIANT BLUE G] | 19 | Toxic
